# Results as given in ChEMBL document CHEMBL1201862, “PubChem BioAssay data set” (2004).
# Activity calls are given as the source filed them.
# Columns and labels:
# LIM domain kinase 1 = LIM domain kinase 1 (Homo sapiens, UniProt P53667); experiment: Navigating the Kinome. Panel member name: LIMK1; assay type: functional
# [1] = inhibitors of HIV Env-driven cell fusion, dose response, cherry-pick (AID 652057); assay type: functional, cell-based
# [2] = ZM109 Env clade C HIV-1 fusion inhibitors, dose response, HeLa effector, CEM target cells, luciferase, cherry-pick (AID 652058); assay type: functional, cell-based
# [3] = molecular target: Dual specificity tyrosine-phosphorylation-regulated kinase 1A (Rattus norvegicus, UniProt Q63470); assay type: biochemical, Homo sapiens
# [4] = molecular target: T1, Heat shock factor protein 1 (Mus musculus, UniProt P38532); experiment: inhibition of MG132-induced HSE-luciferase signal, confirmation, cell-based, NIH3T3, luminescence, dose retest (AID 2382); assay type: functional;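 note: NIH3T3 fibroblasts with HSF1-driven luciferase reporter stressed by proteasome inhibitor MG132; luminescence from HSF1-driven luciferase expression after 8 hours of MG132 stress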
# T1 sequence (P38532 whole entry): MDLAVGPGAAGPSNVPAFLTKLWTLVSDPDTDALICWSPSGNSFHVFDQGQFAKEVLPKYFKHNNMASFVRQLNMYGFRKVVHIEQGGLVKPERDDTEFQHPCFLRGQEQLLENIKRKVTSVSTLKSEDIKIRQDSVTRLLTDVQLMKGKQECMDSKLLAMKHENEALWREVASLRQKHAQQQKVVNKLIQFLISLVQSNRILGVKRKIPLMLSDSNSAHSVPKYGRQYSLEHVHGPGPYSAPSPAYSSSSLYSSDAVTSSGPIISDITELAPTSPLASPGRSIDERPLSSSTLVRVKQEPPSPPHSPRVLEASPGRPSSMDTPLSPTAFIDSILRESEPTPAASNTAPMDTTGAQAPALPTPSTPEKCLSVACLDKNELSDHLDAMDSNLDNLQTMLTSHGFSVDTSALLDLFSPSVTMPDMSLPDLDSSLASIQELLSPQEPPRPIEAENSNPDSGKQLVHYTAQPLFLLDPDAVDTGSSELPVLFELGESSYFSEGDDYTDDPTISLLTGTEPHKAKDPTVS
# [5] = Intein inhibitors as potential Tuberculosis drugs, a cytotoxicity screen. [Related pubchem assays (depositor defined):AID2221, AID2223, AID434968, AID435010, AID449749, AID449750, AID489010]; assay type: functional
# Hexokinase HKDC1 = molecular target: T2, Hexokinase HKDC1 (Homo sapiens, UniProt Q2TB90); experiment: HKDC1 hexokinase inhibitors, dose response, biochemical, W721R variant (AID 504729); assay type: functional
# T2 sequence (Q2TB90 whole entry): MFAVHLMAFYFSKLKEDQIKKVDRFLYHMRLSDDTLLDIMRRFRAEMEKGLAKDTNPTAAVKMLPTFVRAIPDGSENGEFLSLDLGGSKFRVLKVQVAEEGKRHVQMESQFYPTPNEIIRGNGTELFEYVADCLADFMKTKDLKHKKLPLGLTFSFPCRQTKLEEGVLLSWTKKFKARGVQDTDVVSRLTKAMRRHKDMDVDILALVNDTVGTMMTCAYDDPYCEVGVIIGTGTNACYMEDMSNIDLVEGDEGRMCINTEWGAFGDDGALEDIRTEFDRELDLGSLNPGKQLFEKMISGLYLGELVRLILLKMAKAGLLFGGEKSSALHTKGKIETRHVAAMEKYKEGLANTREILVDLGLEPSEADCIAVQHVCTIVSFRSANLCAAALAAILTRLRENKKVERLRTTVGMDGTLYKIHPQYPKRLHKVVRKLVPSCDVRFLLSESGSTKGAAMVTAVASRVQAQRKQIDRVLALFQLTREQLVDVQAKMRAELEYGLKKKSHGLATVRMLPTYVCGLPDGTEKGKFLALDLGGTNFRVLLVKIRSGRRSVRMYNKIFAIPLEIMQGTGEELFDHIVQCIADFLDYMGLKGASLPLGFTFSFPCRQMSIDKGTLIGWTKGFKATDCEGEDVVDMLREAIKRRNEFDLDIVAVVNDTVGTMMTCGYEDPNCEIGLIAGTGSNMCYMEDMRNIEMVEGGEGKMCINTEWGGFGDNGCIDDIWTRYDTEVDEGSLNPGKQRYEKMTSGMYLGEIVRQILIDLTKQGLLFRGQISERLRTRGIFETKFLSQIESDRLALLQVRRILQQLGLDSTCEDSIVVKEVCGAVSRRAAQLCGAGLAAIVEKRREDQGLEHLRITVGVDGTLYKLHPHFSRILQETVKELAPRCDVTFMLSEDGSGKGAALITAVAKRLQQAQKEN
# [6] = molecular target: MAP/microtubule affinity-regulating kinase 3 (Homo sapiens, UniProt P27448); assay type: functional;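 note: MARK3 affinity measured as one member of a kinome panel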
# Sequence of MAP/microtubule affinity-regulating kinase 3 (P27448 whole entry): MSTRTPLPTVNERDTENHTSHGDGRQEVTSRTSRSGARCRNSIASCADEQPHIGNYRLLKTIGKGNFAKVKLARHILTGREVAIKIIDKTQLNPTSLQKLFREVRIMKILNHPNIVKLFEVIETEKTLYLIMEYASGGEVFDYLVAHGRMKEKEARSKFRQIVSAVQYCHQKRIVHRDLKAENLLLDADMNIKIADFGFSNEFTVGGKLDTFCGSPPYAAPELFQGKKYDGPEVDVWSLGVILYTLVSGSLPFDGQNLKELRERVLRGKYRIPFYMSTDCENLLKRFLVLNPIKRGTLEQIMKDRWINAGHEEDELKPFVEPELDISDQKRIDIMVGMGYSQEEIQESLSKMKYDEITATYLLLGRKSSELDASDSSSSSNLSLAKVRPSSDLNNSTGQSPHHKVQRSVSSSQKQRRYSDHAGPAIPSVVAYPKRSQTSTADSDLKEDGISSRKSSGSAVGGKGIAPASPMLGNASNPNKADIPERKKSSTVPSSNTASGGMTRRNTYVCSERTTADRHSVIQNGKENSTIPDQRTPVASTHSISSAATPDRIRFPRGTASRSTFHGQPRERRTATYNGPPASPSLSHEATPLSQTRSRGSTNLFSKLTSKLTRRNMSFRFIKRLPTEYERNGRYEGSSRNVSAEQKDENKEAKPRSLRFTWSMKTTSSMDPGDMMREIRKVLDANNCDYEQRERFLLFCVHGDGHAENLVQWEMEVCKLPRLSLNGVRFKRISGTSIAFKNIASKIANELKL
# [7] = molecular target: Mast/stem cell growth factor receptor Kit (Homo sapiens, UniProt P10721); assay type: functional;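 note: KIT entry within a kinase panel assay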
# Sequence of Mast/stem cell growth factor receptor Kit (P10721 whole entry): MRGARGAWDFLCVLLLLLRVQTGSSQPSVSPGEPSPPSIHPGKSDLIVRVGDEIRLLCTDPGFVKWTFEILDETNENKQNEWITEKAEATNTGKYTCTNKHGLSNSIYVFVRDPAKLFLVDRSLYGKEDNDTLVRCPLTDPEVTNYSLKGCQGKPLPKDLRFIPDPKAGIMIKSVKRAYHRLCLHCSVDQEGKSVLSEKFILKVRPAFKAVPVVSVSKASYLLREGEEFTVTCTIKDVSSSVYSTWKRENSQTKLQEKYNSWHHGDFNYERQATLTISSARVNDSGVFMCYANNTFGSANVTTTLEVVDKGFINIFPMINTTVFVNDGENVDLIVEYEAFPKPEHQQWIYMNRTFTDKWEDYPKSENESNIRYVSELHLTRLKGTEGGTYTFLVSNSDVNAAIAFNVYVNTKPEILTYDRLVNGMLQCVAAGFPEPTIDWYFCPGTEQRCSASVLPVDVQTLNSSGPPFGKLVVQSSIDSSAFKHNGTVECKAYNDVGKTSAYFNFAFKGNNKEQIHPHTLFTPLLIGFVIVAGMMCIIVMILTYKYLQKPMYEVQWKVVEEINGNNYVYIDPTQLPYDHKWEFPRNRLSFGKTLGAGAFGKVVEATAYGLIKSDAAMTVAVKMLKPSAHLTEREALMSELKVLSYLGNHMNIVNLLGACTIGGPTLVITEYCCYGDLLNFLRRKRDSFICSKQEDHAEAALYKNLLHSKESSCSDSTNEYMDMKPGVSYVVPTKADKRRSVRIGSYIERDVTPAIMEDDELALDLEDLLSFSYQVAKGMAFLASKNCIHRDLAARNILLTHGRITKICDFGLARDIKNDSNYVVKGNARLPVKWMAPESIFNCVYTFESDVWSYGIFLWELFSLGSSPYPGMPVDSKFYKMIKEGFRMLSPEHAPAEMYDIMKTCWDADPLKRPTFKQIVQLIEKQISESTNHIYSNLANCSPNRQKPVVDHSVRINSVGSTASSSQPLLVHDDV
# [8] = molecular target: T3, Lysine-specific demethylase 4C (Homo sapiens, UniProt Q9H3R0); experiment: GASC-1 (JMJD2C) histone demethylase inhibitors, dose response, biochemical, DELFIA europium, cherry-picked samples (AID 488835); assay type: functional
# T3 sequence (Q9H3R0 whole entry): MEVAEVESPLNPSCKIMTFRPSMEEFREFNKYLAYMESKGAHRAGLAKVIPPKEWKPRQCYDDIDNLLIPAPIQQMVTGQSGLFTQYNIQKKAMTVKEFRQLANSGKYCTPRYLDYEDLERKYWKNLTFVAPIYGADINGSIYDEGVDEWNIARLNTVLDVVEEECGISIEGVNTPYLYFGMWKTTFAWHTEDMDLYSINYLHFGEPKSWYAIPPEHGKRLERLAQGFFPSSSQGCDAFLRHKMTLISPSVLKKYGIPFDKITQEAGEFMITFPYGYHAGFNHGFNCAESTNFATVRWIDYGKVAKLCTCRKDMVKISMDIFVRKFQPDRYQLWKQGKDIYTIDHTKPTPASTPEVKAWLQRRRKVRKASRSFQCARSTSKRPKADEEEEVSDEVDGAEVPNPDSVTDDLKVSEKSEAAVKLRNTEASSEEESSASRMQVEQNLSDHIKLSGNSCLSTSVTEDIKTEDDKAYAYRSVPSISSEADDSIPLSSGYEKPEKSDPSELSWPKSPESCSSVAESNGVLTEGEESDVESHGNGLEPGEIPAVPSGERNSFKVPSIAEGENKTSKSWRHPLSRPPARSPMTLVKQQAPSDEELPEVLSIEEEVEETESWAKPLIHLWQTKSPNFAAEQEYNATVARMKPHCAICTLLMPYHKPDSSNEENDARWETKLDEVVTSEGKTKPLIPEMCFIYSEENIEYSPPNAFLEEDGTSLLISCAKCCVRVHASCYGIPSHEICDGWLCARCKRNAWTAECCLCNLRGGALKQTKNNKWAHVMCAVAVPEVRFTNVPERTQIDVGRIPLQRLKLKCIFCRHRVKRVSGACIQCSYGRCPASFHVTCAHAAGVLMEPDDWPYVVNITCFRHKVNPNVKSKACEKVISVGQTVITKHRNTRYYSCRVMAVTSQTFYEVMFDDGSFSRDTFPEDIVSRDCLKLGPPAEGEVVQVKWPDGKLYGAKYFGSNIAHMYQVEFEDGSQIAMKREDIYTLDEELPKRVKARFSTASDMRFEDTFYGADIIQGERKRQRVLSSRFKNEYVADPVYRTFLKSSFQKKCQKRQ
# 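Throughout, for CC50: cells exposed to compound for 72 hours before luminescence readout.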
# Sequence of LIM domain kinase 1 (P53667 whole entry, the tested form may be a part): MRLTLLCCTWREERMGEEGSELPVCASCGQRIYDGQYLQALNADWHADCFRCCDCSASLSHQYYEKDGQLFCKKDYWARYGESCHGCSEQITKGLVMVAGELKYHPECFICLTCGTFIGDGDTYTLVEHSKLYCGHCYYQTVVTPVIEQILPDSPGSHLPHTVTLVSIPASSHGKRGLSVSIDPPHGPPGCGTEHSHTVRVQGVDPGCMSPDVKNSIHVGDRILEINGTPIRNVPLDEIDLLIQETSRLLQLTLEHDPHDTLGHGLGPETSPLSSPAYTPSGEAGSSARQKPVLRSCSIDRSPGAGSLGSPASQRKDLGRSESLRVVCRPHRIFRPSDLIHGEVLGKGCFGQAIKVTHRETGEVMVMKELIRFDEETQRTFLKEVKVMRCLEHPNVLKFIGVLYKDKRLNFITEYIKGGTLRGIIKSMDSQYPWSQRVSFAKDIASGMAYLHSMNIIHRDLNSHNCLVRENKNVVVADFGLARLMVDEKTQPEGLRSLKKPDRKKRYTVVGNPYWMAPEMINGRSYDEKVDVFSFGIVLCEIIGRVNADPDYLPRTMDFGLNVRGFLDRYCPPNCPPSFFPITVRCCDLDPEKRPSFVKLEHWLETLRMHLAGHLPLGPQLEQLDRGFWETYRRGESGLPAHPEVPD
compound,measurement,setting,value
O=C(Nc1cccc(C(F)(F)F)n1)Nc1ccnc2cc(OC(F)F)ccc12,Ki,LIM domain kinase 1,> 3.16 µM (inactive)
Cc1cc(C)c(S(=O)(=O)/N=C2\C=C(Nc3ccc(C(=O)O)cc3)C(=O)c3ccccc32)c(C)c1,AC50,[1],12.4 µM (active)
same,AC50,[2],6.51 µM (active)
same,AC50,[3],1.8 µM (active)
same,EC50,[4],6.73 µM (active)
same,CC50,[5],7.89 µM (active)
same,IC50,Hexokinase HKDC1,15.2 µM (active)
CCC1CC(NS(=O)(=O)C2CC2)CC1c1ncc2cnc3[nH]ccc3n12 (stereo not given),Ki,[6],0.158 µM (active)
same,Ki,[7],> 6.31 µM (inactive)
O=C(Cc1ccccc1)NC1(O)C(=O)c2ccccc2C1=O,AC50,[8],5.55 µM (active)
